Experimental data from patent publication US9878015B2, “Pharmaceutical compositions and methods for the treatment of metastatic cancer” (IMMUNE SYSTEM KEY LTD., priority 2013, dated 2018).
Entries after “also recorded” stand apart in the source; their conditions may differ. Where no end group is shown, it is not given here.

Columns and labels:
[1] = system: tumor; details: adult Balb/C mice model; cited from earlier work
[2] = system: tissue plasminogen activator (TPA) secreted by human adenocarcinoma pancreatic cancer cells; assay: Tissue type plasminogen activator (TPA) human ELISA assay on cell supernatant; type: cell-based; details: 1-50 μg/ml peptide, 24 hours; cell line 1, 2 and 3; FIG. 1
Description: Tissue Type Plasminogen Activator (TPA) Human ELISA Assay
(§1) Human adenocarcinoma pancreatic cancer cells were grown until reaching 70-80% density in the flask and were detached from the flask using Trypsin EDTA as described above. Cells suspended in medium and Trypsin were then centrifuged and re-suspended in 2 ml fresh medium (as described for the BrdU incorporation assay, above).
The cells were then fluidized and 3 ml medium were added to the cell suspension such that the cells were re-suspended in a total volume of 5 ml medium. Cells were counted and diluted to a concentration of 50,000 cells/ml medium. Next, the cells were placed in each well of a 6 well plate (Nunc cat no. 140675), by placing 2 ml cells culture per well such that each well contains 100,000 cells. The cells were next incubated over-night at 37° C. in the incubator.
The supernatant was discarded and replaced by 1 ml RPMI medium containing 2.5% FBS. Cells were then incubated for 24 hours or 48 hours at 37° C. in the presence of the Nerofe peptide at the final concentrations of 1, 10, 25 and 50 μg/ml. […]
Next, a TPA ELISA assay was performed as follows: the supernatant was thawed and kept on ice, then diluted 1:15 with the TPA diluents provided with the kit (x1N, Abcam cat no. ab108914). The procedure was continued according to the manufacturer's protocol and ELISA plates were read at an optical density (O.D.) of 450/590.

[3] = system: soluble ST2 (sST2) secreted by human adenocarcinoma pancreatic cancer cells; assay: Soluble ST2 (sST2) ELISA assay, pancreatic cancer cells; type: cell-based; details: 1-50 μg/ml peptide; all tested cells; FIG. 2
Description: (§2) Soluble ST2 (sST2) ELISA Assay
as §1, with “cells and human breast cancer cells (MDA-MB-231)” for “cells”, “70-80% cell” for “70-80%”, “assay” for “assay,”
(§3) The cells were then fluidized and 3 ml medium were added to the cell suspension such that the cells were re-suspended in a total volume of 5 ml medium. The cells were then counted and diluted to a concentration of 50,000 cells/ml medium. Cells at 2 ml per plate were placed in each well of a 6 well plate such that each well contained 100,000 cells. The cells were incubated over-night in 37° C. in the incubator.
(§4) The supernatant was discarded and replaced by 1 ml RPMI medium containing 2.5% FBS. The cells were then incubated for 24 or 48 hours in 37° C. in the presence of the Nerofe peptide at the final concentrations of 1, 10, 25 and 50 μg/ml. […]
(§5) Detecting of sST2 was performed by diluted anti-sST2 Affinity purified antibody (Genmed, project ID 35622 B-Form) 1:100 in diluent (0.05% TW-20, 0.1% BSA in PBS), where 100 μl of the detection antibody was loaded on each well. […] Plate absorbance was performed in a microplate reader at O.D. of 450/590 nm.

[4] = system: adenocarcinoma pancreatic cancer cells, cell line 1; assay: Radius cell migration assay, cell line 1; type: cell-based, human; details: cell line 1, Nerofe 10 μg/ml
Description: (§6) Cell Migration Assay of Human Cancer Cell
as §1, with “70-80% cell” for “70-80%”, “and” for “and were”, “centrifuged 10 minutes at 300 g (4° C.)” for “centrifuged”, “assay” for “assay,”
(§7) The cells were then fluidized and 3 ml medium were added such that the cells were suspended in a volume of 5 ml medium and subsequently counted and diluted to a concentration of 150,000 or 300,000 cells/ml medium.
(§8) Alternatively, Dulbecco's modification of Eagle's medium (DMEM, Biological Industries cat no. 01-055-1A) supplemented with 50 ml FBS (Biological industries cat no. 04-121-1A), 5 ml Hepes 1M (Biological industries cat no. 03-025-1C), 0.5 ml Amphotericin B 2500 μg/ml (Biological industries cat no. 03-029-1) and 5 ml Gentamycin sulfate 50 mg/ml (Biological industries cat no. 03-035-1) was used for cell culturing and re-suspension and the cells were re-suspended to a final concentration of 100,000 cells/ml medium.
(§9) A radius 96-well Cell Migration Assay plate (Cell Biolabs Inc. cat no. CBA-126) was prepared according to the manufacturer's protocol and each well was loaded with 100 μl cells such that each well contained 10,000, 15,000 or 30,000 cells. […]

[5] = system: soluble ST2 (sST2) in human breast cancer cells (MDA-MB-231); assay: Soluble ST2 (sST2) ELISA assay, breast cancer cells; type: cell-based; details: MDA-MB-231, similar assay conditions, data not shown
Description: as §2
as §1, with “cells and human breast cancer cells (MDA-MB-231)” for “cells”, “70-80% cell” for “70-80%”, “assay” for “assay,”
as §3, §4, §5

[6] = system: adenocarcinoma pancreatic cancer cells, cell line 2; assay: Radius cell migration assay, cell line 2; type: cell-based, human; details: cell line 2, Nerofe 10 μg/ml
Description: as §6
as §1, with “70-80% cell” for “70-80%”, “and” for “and were”, “centrifuged 10 minutes at 300 g (4° C.)” for “centrifuged”, “assay” for “assay,”
as §7, §8, §9

[7] = system: various cancer cells of hematopoietic origin; details: inhibitory effect defined as at least 40% inhibition vs control; cited from earlier work
[8] = system: vascular endothelial growth factor (VEGF); assay: Clinical study: serum level of VEGF in cancer patients (ELISA); type: in vivo, human
Description: Therefore a clinical study that follows the serum levels of VEGF was conducted in cancer patients that were administered with the peptide Nerofe. Patients participating in the study were diagnosed with various cancer types, namely colon, colorectal, spindle cell neoplasm, pancreas, small intestine, non small cell lung carcinoma, hepatic carcinoma, colon adenocarcinoma and rectal adenocarcinoma, as summarized in Table 3 below.
Patients were included in at least one of Cohort 1, Cohort 2, Cohort 3 and Cohort 4 and received doses of […] (about 0.16, 0.32, 0.64 or 1.28 mg/kg body weight) of the peptide Nerofe, respectively, at the indicated time points.
Serum levels of VEGF were measured in blood samples obtained form these patients using an Elisa kit for human VEFG (R&D systems) and the results are presented in FIG. 5 (for the patients of Cohort 1 and Cohort 2) and in FIG. 6 (for the patients of Cohort 3 and Cohort 4).

[9] = system: human adenocarcinoma pancreatic cancer cells; assay: Bromodeoxyuridine (BrdU) incorporation assay (cell proliferation); type: cell-based; details: 1, 10, 25 and 50 μg/ml peptide vs control; no correlation with concentration
Description: Bromodeoxyuridine (BrdU) Incorporation Assay
Human adenocarcinoma pancreatic cancer cells and human breast cancer cells were grown until reaching 70-80% density in the flask and detached from the flask using Trypsin EDTA as described above (the above protocol for cell culturing was used until the step of adding 10 ml medium to the Trypsin-treated cells). The cells suspended in medium and Trypsin were then transferred into a 50 ml conical tube and centrifuged at 300 g (10 min, 4° C.). The supernatant was then discarded and the cell pellet was re-suspended in fresh medium (2 ml medium prepared as described above).
The cells were then fluidized and additional 3 ml medium were added to the cell suspension such that the cells were re-suspended in a total volume of 5 ml medium. The cells were then counted and diluted to a concentration of 20,000 cells/ml medium. Next, the cells were placed in a 96 well plate (Nunc cat no. 167008), placing 100 μl cell suspension per well, such that each well contained 2000 cells. The cells were then incubated over-night in 37° C. in the incubator.
The concentrated Nerofe peptide was suspended in a total volume of 100 μl medium and added to the assayed cells in the 96-well plate to a final concentration of 1, 10, 25 and 50 μg/ml. Control (background) assays were performed in the absence of the peptide, namely, 100 μl medium was added to control cells. […]

[10] = system: human adenocarcinoma pancreatic cancer cells; assay: Cell migration assay after 48 hours pre-incubation with peptide; type: cell-based; details: 25 μg/ml peptide for 48 hours before assay; 27 hours vs 1 hour; FIG. 3, FIG. 4
Description: as §1, with “70-80% cell” for “70-80%”, “and” for “and were”, “centrifuged 10 minutes at 300 g (4° C.)” for “centrifuged”, “assay” for “assay,”
as §8
Alternatively, the supernatant was discarded and replaced by 200 μl DMEM containing 2.5% 1-BS and the required treatment, namely control (without Nerofe), 10, 25 or 50 μg/ml Nerofe. The cells were then incubated at 37° C. for 48 hours in an incubator.
When the cells reached 70-80% density, the supernatant was discarded and the gel was removed from the center of the well, without affecting the attachment of cells as described in the manufacturer's protocol. […]

Sequence	tumor size [1]	level of secreted TPA compared to control cells [2]	level of sST2 compared to cells not incubated with the peptide [3]	% inhibition of migration ([4]; 8 hours)	% Migration after 8 hours ([4]; control = 100)	decrease in the level of sST2 [5]	% inhibition of migration ([6]; 8 hours)	% Migration after 8 hours ([6]; control = 100)	cell proliferation [7]	change of serum level of VEGF ([8]; cancer patients, Cohort 1 and Cohort 2, 6 or 12 mg/m^2, FIG. 5)	decrease of serum level of VEGF ([8]; cancer patients, Cohort 3 and Cohort 4, 24 or 48 mg/m^2, FIG. 6)	decrease of serum level of VEGF in single patients ([8]; patients 13 (small intestine) and 19 (rectal adenocarcinoma))	inhibition of BrdU incorporation [9]	migration of cells into cell-free area [10]
LHLWLSGEPVQSSGTKDMRSKSDSKRVSDKQLISKAVWWTFFLPSTLWERK (isolated synthetic peptide (fragment of T 101 peptide)) [T101 peptide, Full length thymus peptide, devoid of its N-terminal 33 amino acids; 51 amino acids long]	significantly reduce tumor size													
WWTFFLPSTLWERK [Nerofe, C-terminal 14 all D amino acid fragment of the full T101 peptide, …]		lower levels of secreted TPA	lower levels of sST2; also recorded: dose-dependent	30%	70%	about 80%	82%	18%	inhibit cell proliferation	increase	30-40%	particularly significant	up to 26%	substantially inhibited
